Reference: paper PMC10253321, “Effects of Phosphorylation on the Activity, Inhibition and Stability of Carbonic Anhydrases” (International Journal of Molecular Sciences, 2023)

Tests used:
hCAI = test system: hCAI; design: method as in PMID 12713833; settings: pH 7.8; cited from earlier work
hCAII = test system: hCAII; design: method as in PMID 12713833; settings: pH 7.8; cited from earlier work
[1] = Esterase activity assay in whole-cell lysates; format: biochemical, human; settings: kcat/KM vs unmodified isoform
[2] = Differential scanning fluorimetry; format: physicochemical, human
Experimental: The diminished activity of hCAII^S29E and hCAI^S30E can be attributed to protein unfolding or misfolding upon introduction of a charged residue close to the hydrophobic side of the ligand-binding pocket. The phosphomimic hCAII^S29E was only expressed as a soluble protein when using ArcticExpress E. coli at 10 °C but not with T7 Express or C43 (DE3) E. coli. In ArticExpress cells, a cold-adapted chaperonin is co-expressed to assist folding at low temperatures. In addition, hCAI^S30E expresses at a very low yield in the soluble fraction even with the ArcticExpress system, and below detectable levels in T7 Express or C43 (DE3) E. coli. Moreover, an S > E mutation at Ser29 in another cytosolic carbonic anhydrase isoform (hCAIII) destabilizes the protein and decreases the melting temperature from 59 °C to 43 °C in differential scanning fluorimetry (Figure S5).

In the case of CC(=O)Oc1ccc([N+](=O)[O-])cc1 [pNPA, p-nitrophenyl acetate], the Km (hCAI) is given as 15.4 mM and the Km (hCAII) is given as 2.92 mM.

In the case of “hCAI S30E: human carbonic anhydrase I phosphomimic, Ser30 to Glu”, the “fold decrease in catalytic activity compared to the respective unmodified isoform” value [1] is reported as 2.7 fold.

B1: hCAIII: cytosolic human carbonic anhydrase isoform III (protein, UniProt P07451 2-260, looked up)
Carbonic anhydrase 3: AKEWGYASHNGPDHWHELFPNAKGENQSPVELHTKDIRHDPSLQPWSVSYDGGSAKTILNNGKTCRVVFDDTYDRSMLRGGPLPGPYRLRQFHLHWGSSDDHGSEHTVDGVKYAAELHLVHWNPKYNTFKEALKQRDGIAVIGIFLKIGHENGEFQIFLDALDKIKTKGKEAPFTKFDPSCLFPACRDYWTYQGSFTTPPCEECIVWLLLKEPMTVSSDQMAKLRSLLSSAENEPPVPLVSNWRPPQPINNRVVRASFK
Work on B1 yielded a melting temperature [2] of 59 °C.
